Measured values published in patent US20260217651A1 (priority 2022, published 2026).
Like-named read-outs stand apart in the source and are kept apart here.

Experiments:
SD rats [1] = assay: animal or person; assay type: in vivo; conditions: Rattus norvegicus, iv, read-out: Minimal effective analgesic dose(mg/kg)
SD rats [2] = assay: animal or person; assay type: in vivo, rat; conditions: iv; for minimal effective dose: Rattus norvegicus, read-out: Minimal effective anesthetic dose(mg/kg); for Onset time / Righting Reflex Duration / Sedation Duration / Minimal effective anesthetic dose(mg/kg): rat, in vivo

Structure (SMILES) | minimal effective dose (SD rats [1]) [mg/kg] | minimal effective dose (SD rats [2]) [mg/kg] | Onset time (SD rats [2]) [min] | Righting Reflex Duration (SD rats [2]) [min] | Sedation Duration (SD rats [2]) [min] | Minimal effective anesthetic dose(mg/kg) (SD rats [2])
CCOC(=O)N(c1ccc(Cl)cc1)N1CCN(c2cc(C(C)C)c(O)c([C@H](C)C3CC3)c2)CC1 [Cpd-73] | 20 to 40 | 10 to 20 | 0.83 to 1.65 | 8.78 to 25.28 | 44.83 to 119.62 | 
CC(C)OC(=O)N(c1ccccc1)C1CCN(c2cc(C(C)C)c(O)c(C(C)C)c2)CC1 [Cpd-15] |  | 5 to 10 | 0.67 | 16.28 | 29.90 | 
CCOC(=O)N(c1ccccc1)N1CCN(c2cc(C(C)C)c(O)c(C(C)C)c2)CC1 [Cpd-51] |  | 5 to 10 | 0.65 to 0.97 | 2.52 to 14.47 | 22.27 to 35.75 | 
COC(=O)C1CCN(c2cc(C(C)C)c(O)c([C@H](C)C3CC3)c2)CC1 [Cpd-84-1] |  | < 5 | 0.43 to 0.77 | 0.77 to 4.62 | 5.72 to 10.28 | 
CCOC(=O)N(Cc1cccc(Cl)c1)N1CCN(c2cc(C(C)C)c(O)c(C(C)C)c2)CC1 [Cpd-127] |  | 5 to 10 | 0.55 | 21.20 | 71.18 | 
COC(=O)C1CCN(c2cc(C(C)C)c(O)c([C@H](C)C3CC3)c2)CC1 [Cpd-84] |  |  | 0.30 to 0.75 | 1.10 to 17.23 | 18.08 to 35.02 | A (key: A≤5 mg/kg; 5 mg/kg<B≤10 mg/kg; 10 mg/kg<C≤20 mg/kg; 20 mg/kg<D≤40 mg/k; E>40 mg/kg)
CCOC(=O)N(c1cccc(C)c1)N1CCN(c2cc(C(C)C)c(O)c(C(C)C)c2)CC1 [Cpd-62] |  | 10 to 20 | 1.15 to 2.15 | 1.22 to 17.28 | 55.48 to 85.02 | 
CCOC(=O)C1(c2ccccn2)CCN(c2cc(C(C)C)c(O)c(C(C)C)c2)CC1.Cl [Cpd-23] |  | 10 to 20 | 0.53 | 13.95 | 41.02 | 
COC(=O)CN1CC=C(c2cc(C(C)C)c(O)c([C@H](C)C3CC3)c2)CC1 [Cpd-86] |  | < 5 | 0.17 to 0.20 | 1.15 to 10.33 | 16.40 to 19.62 | 
CCOC(=O)N(c1ccc(F)cc1)N1CCN(c2cc(C(C)C)c(O)c(C(C)C)c2)CC1 [Cpd-64] |  | 10 to 20 | 0.43 to 0.47 | 3.70 to 7.22 | 26.92 to 42.58 | 
COC(=O)CC1CCN(c2cc(C(C)C)c(O)c([C@H](C)C3CC3)c2)CC1 [Cpd-80] |  | < 5 | 0.17 to 0.97 | 1.50 to 12.97 | 10.17 to 28.53 | 
CC(C)c1cc(N2CCC(C(=O)OC(C)(C)C)CC2)cc([C@H](C)C2CC2)c1O [Cpd-85] |  |  | 0.18 to 0.55 | 1.28 to 4.92 | 5.05 to 15.13 | A (key: A≤5 mg/kg; 5 mg/kg<B≤10 mg/kg; 10 mg/kg<C≤20 mg/kg; 20 mg/kg<D≤40 mg/k; E>40 mg/kg)
CCC(=O)N(c1cc(C(C)C)c(O)c([C@H](C)C2CC2)c1)N1CCN(CCC(=O)OC)CC1 [Cpd-50] |  | 20 to 40 | 1.03 | 1.47 | 66.48 | 
CCOC(=O)C1(c2ccccc2F)CCN(c2cc(C(C)C)c(O)c(C(C)C)c2)CC1 [Cpd-34] |  | 10 to 20 | 0.88 | 10.28 | 29.75 | 
CCOC(=O)C1(c2cccc(Cl)c2)CCN(c2cc(C(C)C)c(O)c(C(C)C)c2)CC1 [Cpd-37] |  | 5 to 10 | 2.63 | 0.65 | 21.73 | 
CCOC(=O)N(Cc1ccoc1)N1CCN(c2cc(C(C)C)c(O)c(C(C)C)c2)CC1 [Cpd-126] |  | 10 to 20 | 0.42 | 14.90 | 21.85 | 
CCOC(=O)N(c1cccc(OC)c1)N1CCN(c2cc(C(C)C)c(O)c([C@H](C)C3CC3)c2)CC1 [Cpd-71] |  | 10 to 20 | 0.55 | 17.52 | 37.65 | 
COC(=O)CN1CCN(Cc2cc(C(C)C)c(O)c([C@H](C)C3CC3)c2)CC1 [Cpd-78-1] |  | 5 to 10 | 0.62 | 2.73 | 22.58 | 
CCOC(=O)N(c1ccccc1)N1CCN(c2cc(C(C)C)c(O)c([C@H](C)C3CC3)c2)CC1 [Cpd-59] |  | 10 to 20 | 0.37 to 0.85 | 21.18 to 24.15 | 37.27 to 47.68 | 
CCC(=O)N(C1CC1)C1CCN(c2cc(C(C)C)c(O)c(C(C)C)c2)CC1 [Cpd-5] |  | 5 to 10 | 0.45 | 6.40 | 17.12 | 

Structure (SMILES) | minimal effective dose (SD rats [1]) [mg/kg] | minimal effective dose (SD rats [2]) [mg/kg] | Onset time (SD rats [2]) [min] | Righting Reflex Duration (SD rats [2]) [min] | Sedation Duration (SD rats [2]) [min] | Minimal effective anesthetic dose(mg/kg) (SD rats [2])
CC(C)OC(=O)N(c1ccccc1)N1CCN(c2cc(C(C)C)c(O)c(C(C)C)c2)CC1 [Cpd-52] |  | 5 to 10 | 0.52 to 0.98 | 13.92 to 16.42 | 28.53 to 94.30 | 
CCOC(=O)C1(c2ccc(F)cc2F)CCN(c2cc(C(C)C)c(O)c(C(C)C)c2)CC1 [Cpd-27] |  | 20 to 40 | 1.47 | 36.80 | 67.40 | 
CCOC(=O)N(c1ccc(C)cc1)N1CCN(c2cc(C(C)C)c(O)c([C@H](C)C3CC3)c2)CC1 [Cpd-74] |  | 20 to 40 | 0.50 | 26.28 | 69.23 | 
COC(=O)CN(C1CC1)C1CCN(c2cc(C(C)C)c(O)c(C(C)C)c2)CC1 [Cpd-8] |  | 5 to 10 | 0.40 | 7.73 | 17.93 | 
COC(=O)CN(c1ccccc1)C1CCN(c2cc(C(C)C)c(O)c(C(C)C)c2)CC1 [Cpd-10] |  | 5 to 10 | 0.42 to 0.45 | 6.47 to 27.50 | 47.22 to 66.70 | 
CC(C)c1cc(N2CCC(C(=O)OC(C)(C)C)CC2)cc([C@H](C)C2CC2)c1O [Cpd-85-1] |  | < 5 | 0.40 to 1.33 | 1.38 to 29.00 | 20.97 to 44.48 | 
COC(=O)CCC1CCN(c2cc(C(C)C)c(O)c([C@H](C)C3CC3)c2)CC1 [Cpd-82] |  | < 5 | 0.17 to 0.52 | 0.87 to 3.42 | 3.67 to 13.02 | 
CC(C)c1cc(N2CCC(CC(=O)OC(C)(C)C)CC2)cc([C@H](C)C2CC2)c1O [Cpd-81] |  | < 5 | 0.18 to 0.75 | 9.28 to 40.37 | 27.22 to 57.86 | 
CC(=O)N(c1ccccc1)C1CCN(c2cc(C(C)C)c(O)c(C(C)C)c2)CC1 [Cpd-12] |  | 10 to 20 | 0.45 | 6.85 | 55.12 | 
CCOC(=O)N(c1ccc(OC)c(F)c1)N1CCN(c2cc(C(C)C)c(O)c(C(C)C)c2)CC1 [Cpd-101] |  | 10 to 20 | 0.70 to 0.73 | 2.05 to 2.58 | 38.73 to 57.17 | 
COC(=O)CC1CCN(Cc2cc(C(C)C)c(O)c([C@H](C)C3CC3)c2)CC1 [Cpd-77] |  | < 5 | 1.00 to 1.80 | 0.67 to 1.95 | 5.00 to 22.33 | 
C=C[C@@H](C)c1cc(N2CCN(CC(=O)OC)CC2)cc(C(C)C)c1O [Cpd-89] |  | 10 to 20 | 0.18 | 0.88 | 22.78 | 
CCC(=O)N(c1ccccc1)C1CCN(c2cc(C(C)C)c(O)c([C@H](C)C3CC3)c2)CC1 [Cpd-18] |  | 5 to 10 | 0.20 to 0.57 | 5.55 to 20.30 | 26.77 to 47.53 | 
COC(=O)N(c1ccccc1)C1CCN(c2cc(C(C)C)c(O)c(C(C)C)c2)CC1 [Cpd-3] |  | < 5 | 0.20 to 0.67 | 5.83 to 22.20 | 24.65 to 38.02 | 
COC(=O)CN1CCC(N(CC(=O)OC)c2cc(C(C)C)c(O)c([C@H](C)C3CC3)c2)CC1 [Cpd-87] |  | 10 to 20 | 0.42 | 1.85 | 19.32 | 
CC(C)C(=O)N(c1ccccc1)C1CCN(c2cc(C(C)C)c(O)c(C(C)C)c2)CC1 [Cpd-14] |  | 5 to 10 | 0.48 | 17.60 | 42.83 | 
CCOC(=O)N(c1cccc(C#N)c1)N1CCN(c2cc(C(C)C)c(O)c(C(C)C)c2)CC1 [Cpd-95] |  | 20 to 40 | 0.72 | 13.75 | 54.33 | 
CCOC(=O)N(c1cccc(Cl)c1)N1CCN(c2cc(C(C)C)c(O)c([C@@H](C)C3CC3)c2)CC1 [Cpd-106] |  | 10 to 20 | 1.55 to 1.60 | 3.35 to 24.10 | 98.82 to 103.67 | 
CCOC(=O)N(c1ccc(OC)c(Br)c1)N1CCN(c2cc(C(C)C)c(O)c(C(C)C)c2)CC1 [Cpd-103] |  | 20 to 40 | 0.15 | 14.85 | 107.67 | 
CCC(=O)N(CC1CCN(c2cc(C(C)C)c(O)c(C(C)C)c2)CC1)c1ccccc1 [Cpd-32] |  | 5 to 10 | 0.52 | 2.67 | 19.68 | 
